According to patent US7544687B2, “Substituted α-piperazinyl phenylpropionic acid derivatives as hPPAR α and/or hPPAR γ agonists” (Beijing Molecule Science and Technology Co., Ltd, priority 2004, dated 2009):

How the values were obtained:
Human PPARα = biological target: T1, Human PPARα (Homo sapiens, UniProt Q07869); assay: Activation of human PPARα, GAL4 chimeric receptor luciferase reporter assay in transiently transfected 293-T cells; format: cell-based; details: for Photon number (×10^4) / Increased multiple vs control: compounds 10 μM, PPARα; for Photon number (×10^4): luciferase 24 h after administration; for Increased multiple vs control: vs DMSO control
T1 construct: expressed in transfected cells; host or cells: 293-T cells, transient transfection
T1 sequence (Q07869 239-466 limits assumed): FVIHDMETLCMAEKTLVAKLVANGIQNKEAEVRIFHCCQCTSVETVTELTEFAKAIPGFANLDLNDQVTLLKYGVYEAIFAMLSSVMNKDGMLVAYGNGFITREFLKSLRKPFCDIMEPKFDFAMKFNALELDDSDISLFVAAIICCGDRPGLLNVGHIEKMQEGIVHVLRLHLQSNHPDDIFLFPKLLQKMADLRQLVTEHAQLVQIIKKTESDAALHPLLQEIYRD
Description: (§1) The compounds were screened with respect to their functional effect of instantaneous transfection in 293-T cells, so that their capabilities of activating PPAR subtypes were determined. A chimeric receptor system as established in advance was used to compare the influence of receptor subtypes on the transcription activity of same target gene. Human PPARα and PPARγ ligand-binding domains were fused respectively with yeast transcription factor GAL4 DNA-binding domains, and then linked to expression vector pM of mammal, to thereby construct two plasmids pM-hPPARα/GAL4 and pM-PPARγ/GAL4. GAL4 DNA-binding area was linked to pB4-tk-luc, to thereby construct pB4-RES-tk-luc (a firefly luciferase reporter gene comprising GAL4 DNA-binding site). pRL-CMV-Rluc was used as an internal control to normalize transfection efficiency and endogenous influence.
293-T cells were incubated in a 48-well plate at a cell density of 2-4×10^4/well, using a phenol red-free and antibiotic-free 1640 medium containing 10% defatted fetal calf serum (FCS). After culturing for 48 h, the medium was replaced with a phenol red-free and antibiotic-free 1640 medium containing 5% defatted FCS, and then three plasmids pM-hPPAR/GAL4, pB4-RES-tk-luc and pRL-CMV-Rluc pertaining to two subtypes were respectively co-transfected into the 293-T cells. The strength of luciferase was measured at the time of 24 h after administration, with 0.2% DMSO as a blank control.

Human PPARγ = biological target: T2, Human PPARγ (Homo sapiens, UniProt P37231); assay: Activation of human PPARγ, GAL4 chimeric receptor luciferase reporter assay in transiently transfected 293-T cells; format: cell-based
T2 construct: expressed in transfected cells; host or cells: 293-T cells, transient transfection
T2 sequence (P37231 238-503 limits assumed): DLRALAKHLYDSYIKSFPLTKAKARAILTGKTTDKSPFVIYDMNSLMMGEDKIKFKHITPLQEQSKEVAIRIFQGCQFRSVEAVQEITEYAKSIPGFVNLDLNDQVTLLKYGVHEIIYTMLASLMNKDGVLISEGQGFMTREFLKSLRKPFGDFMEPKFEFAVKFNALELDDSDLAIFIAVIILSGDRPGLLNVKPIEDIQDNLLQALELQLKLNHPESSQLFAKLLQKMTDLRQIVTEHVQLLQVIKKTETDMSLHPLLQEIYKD
From the text: as §1, with “A” for “The compounds were screened with respect to their functional effect of instantaneous transfection in 293-T cells, so that their capabilities of activating PPAR subtypes were determined. A”
The strength of luciferase was measured at the time of 24 h after administration, with 0.2% DMSO as a blank control.

Compound | melting point [°C] | Photon number (×10^4) (Human PPARα) | Increased multiple vs control (Human PPARα) | also measured
Cc1oc(-c2ccccc2)nc1CCOc1ccc(C[C@@H](C(=O)O)N2CCN(S(=O)(=O)c3ccccc3F)CC2)cc1 [Example 3, (2S)-2-[4-(2-fluoro-benzenesulfonyl)-piperazin-1-yl]-3-{4-[2-(5-methyl-2-phenyl-1,3-oxazol-4-yl)-ethoxy]-phenyl}-propionic acid] | 170 to 172 |  |  | 
Cc1oc(-c2ccccc2)nc1CCOc1ccc(C[C@@H](C(=O)O)N2CCN(S(=O)(=O)c3ccc(F)cc3)CC2)cc1 [Example 4, (2S)-2-[4-(4-fluoro-benzenesulfonyl)-piperazin-1-yl]-3-{4-[2-(5-methyl-2-phenyl-1,3-oxazol-4-yl)-ethoxy]-phenyl}-propionic acid] | 198 to 200 | 6.8 ×10^4 | 3.2 | Photon number (×10^4) (Human PPARγ; compounds 10 μM, PPARγ, luciferase 24 h after administration): 2.8 ×10^4; Increased multiple vs control (Human PPARγ; compounds 10 μM, PPARγ, vs control): 2.0
Cc1cccc(N2CCN([C@@H](Cc3ccc(OCCc4nc(-c5ccccc5)oc4C)cc3)C(=O)O)CC2)c1 [Example 1, (2S)-3-{4-[2-(5-methyl-2-phenyl-1,3-oxazol-4-yl)-ethoxy]-phenyl}-2-(4-m-tolyl-piperazin-1-yl)-propionic acid] |  | 11.3 ×10^4 | 5.3 | 

Now from value to compound, other results behind:

melting point [°C] | Photon number (×10^4) (Human PPARα) | Increased multiple vs control (Human PPARα) | Compound | also measured
218 to 220 | 13.2 ×10^4 | 6.3 | Cc1oc(-c2ccccc2)nc1CCOc1ccc(C[C@@H](C(=O)O)N2CCN(c3ccccc3)CC2)cc1 [Example 8, (2S)-3-{4-[2-(5-methyl-2-phenyl-1,3-oxazol-4-yl)-ethoxy]-phenyl}-2-(4-phenyl-piperazin-1-yl)-propionic acid] | 
171 to 173 |  |  | Cc1oc(-c2ccccc2)nc1CCOc1ccc(C[C@@H](C(=O)O)N2CCN(S(=O)(=O)c3ccccc3[N+](=O)[O-])CC2)cc1 [Example 6, (2S)-2-[4-(2-nitro-benzenesulfonyl)-piperazin-1-yl]-3-{4-[2-(5-methyl-2-phenyl-1,3-oxazol-4-yl)-ethoxy]-phenyl}-propionic acid] | EC50 (Human PPARα; activation of PPARα): 1050 nM; EC50 (Human PPARγ; activation of PPARγ): 3200 nM
138 to 139 |  |  | Cc1oc(-c2ccccc2)nc1CCOc1ccc(C[C@@H](C(=O)O)N2CCN(c3cccc(Cl)c3)CC2)cc1 [Example 7, (2S)-2-[4-(m-chloro-phenyl)-piperazin-1-yl]-3-{4-[2-(5-methyl-2-phenyl-1,3-oxazol-4-yl)-ethoxy]-phenyl}-propionic acid] | 
220 to 222 |  |  | Cc1oc(-c2ccccc2)nc1CCOc1ccc(C[C@@H](C(=O)O)N2CCN(c3ccccc3)CC2)cc1Br [Example 10, (2S)-3-{3-bromo-4-[2-(5-methyl-2-phenyl-1,3-oxazol-4-yl)-ethoxy]-phenyl}-2-(4-phenylpiperazin-1-yl)-propanoic acid] | 
